Legend:
ICA512-TMF [1] = test: Stimulus-induced decrease of ICA512-TMF in rat pancreatic islets (western blot); format: cell-based; settings: purified rat pancreatic islets; with or without 60 μM calpeptin
Method: Islet isolation and cell culture. Pancreatic islets were isolated from female Wistar rats by collagenase digestion, purified by density gradient centrifugation, and cultured (400/60 mm culture dish) as described previously (26). INS-1 cells were grown as described (27). Cell extracts and western blotting. Wild type and transfected INS-1 cells and rat pancreatic islets (350-450) were pre-incubated for 60 minutes in resting buffer containing 0 mM glucose and 5 mM KCl and then incubated for various times in fresh resting or stimulating buffer including 25 mM glucose and 55 mM KCl, as previously described (7). […] Next, the cells were washed with ice cold PBS, and extracted in lysis buffer (10 mM Tris-HCl at pH 8.0, 140 mM NaCl, 1% Triton X-100, 1 mM EDTA, 1 mM PMSF, and 1% protease inhibitor cocktail (Sigma, St. Louis, Mo.) at 4° C. Cytosolic and nuclear extracts were prepared using the NE-PER Nuclear and Cytoplasmic Extraction Reagents (Pierce, Rockford, Ill.) in accordance with the manufacturer's instructions. Protein concentration was measured using the Bio-Rad Protein Assay Reagent (Bio-Rad, Hercules, Calif.). Equivalent amount of protein was separated by 8-10% SDS-PAGE, except for nuclear extracts, in which case half of the protein were loaded compared to the corresponding cytosolic extracts. […] Quantitation of protein signals was performed with the Image Gauge v3.45 software (Fuji).

μ-calpain = target: T1, μ-calpain (Homo sapiens, UniProt P07384); format: biochemical; settings: bacterially expressed ICA512 (601-979), 50 μM Ca2+, 30 μM inhibitor
T1 sequence (P07384 1-714): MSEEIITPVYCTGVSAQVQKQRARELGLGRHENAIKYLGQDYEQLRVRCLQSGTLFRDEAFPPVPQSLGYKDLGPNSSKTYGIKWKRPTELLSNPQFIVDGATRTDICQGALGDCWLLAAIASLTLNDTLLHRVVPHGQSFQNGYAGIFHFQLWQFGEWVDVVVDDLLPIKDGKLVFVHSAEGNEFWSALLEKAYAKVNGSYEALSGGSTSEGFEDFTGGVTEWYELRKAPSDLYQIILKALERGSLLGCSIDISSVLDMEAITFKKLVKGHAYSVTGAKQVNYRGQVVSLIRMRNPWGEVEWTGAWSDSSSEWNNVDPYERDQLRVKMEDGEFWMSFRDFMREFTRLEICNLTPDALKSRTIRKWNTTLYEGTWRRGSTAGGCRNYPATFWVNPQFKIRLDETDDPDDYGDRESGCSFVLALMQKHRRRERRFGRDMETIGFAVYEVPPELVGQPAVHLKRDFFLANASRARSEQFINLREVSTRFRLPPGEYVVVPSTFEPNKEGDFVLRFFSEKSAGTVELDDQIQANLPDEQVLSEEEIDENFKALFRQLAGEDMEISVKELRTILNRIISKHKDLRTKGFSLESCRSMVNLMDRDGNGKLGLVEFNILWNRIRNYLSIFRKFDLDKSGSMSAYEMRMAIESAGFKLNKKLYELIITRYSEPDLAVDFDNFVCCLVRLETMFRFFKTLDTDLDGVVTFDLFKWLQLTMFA
T1 sequence (P04632 1-268 partner): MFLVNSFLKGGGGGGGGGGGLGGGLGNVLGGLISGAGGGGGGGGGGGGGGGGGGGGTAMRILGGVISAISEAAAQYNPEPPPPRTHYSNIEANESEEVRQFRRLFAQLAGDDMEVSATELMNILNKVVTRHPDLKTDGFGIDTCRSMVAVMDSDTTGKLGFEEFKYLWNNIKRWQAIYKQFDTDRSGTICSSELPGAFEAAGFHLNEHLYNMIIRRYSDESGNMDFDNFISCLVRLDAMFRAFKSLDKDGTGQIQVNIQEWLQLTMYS
Method: In-vitro μ-calpain cleavage. 3 μg bacterially expressed His-ICA512 cytoplasmic domain (residues 601-979) (Ort et al., 2001) were incubated in 20 μl buffer (20 mM Tris-HCl pH 7.5, 50 μM CaCl2, 1 mM L-cysteine) at room temperature with or without 150 ng μ-calpain (Calbiochem) and 30 μM calpeptin or MG-132 for 1, 5, 15 or 45 minutes. The reactions were stopped by addition of an equal volume of 2×SDS sample buffer. Following SDS-PAGE, proteins were stained with Coomassie Blue (Bio-Rad).

ICA512-TMF [2] = test: Stimulus-induced cleavage of ICA512-TMF in INS-1 cells (western blot); format: cell-based, rat
Method: Cell extracts and western blotting. Wild type and transfected INS-1 cells and rat pancreatic islets (350-450) were pre-incubated for 60 minutes in resting buffer containing 0 mM glucose and 5 mM KCl and then incubated for various times in fresh resting or stimulating buffer including 25 mM glucose and 55 mM KCl, as previously described (7). […] Next, the cells were washed with ice cold PBS, and extracted in lysis buffer (10 mM Tris-HCl at pH 8.0, 140 mM NaCl, 1% Triton X-100, 1 mM EDTA, 1 mM PMSF, and 1% protease inhibitor cocktail (Sigma, St. Louis, Mo.) at 4° C. Cytosolic and nuclear extracts were prepared using the NE-PER Nuclear and Cytoplasmic Extraction Reagents (Pierce, Rockford, Ill.) in accordance with the manufacturer's instructions. Protein concentration was measured using the Bio-Rad Protein Assay Reagent (Bio-Rad, Hercules, Calif.). Equivalent amount of protein was separated by 8-10% SDS-PAGE, except for nuclear extracts, in which case half of the protein were loaded compared to the corresponding cytosolic extracts. After protein transferring, nitrocellulose filters were incubated with the following antibodies: mouse monoclonal anti-ICA512 (6), anti-μ-calpain (Chemicon, Temecula, Calif.), anti-γ-tubulin and anti-HA (Sigma), anti-GFP (Clontech); rabbit polyclonals anti-Glut2 (Alpha Diagnostics International, St Antonio, Tex.), anti-CPE (Chemicon), anti-GFP (Molecular Probes, Eugene, Oreg.) and anti-HA (kind gift of Christoph Thiele). Chemiluminescence was developed using the Supersignal West Pico Substrate (Pierce) as substrate and detected with a LAS 3000 Bioimaging System (Fuji, Tokyo, Japan). Quantitation of protein signals was performed with the Image Gauge v3.45 software (Fuji).

CCCC[C@@H](C=O)NC(=O)[C@H](CC(C)C)NC(=O)OCc1ccccc1 [calpeptin]
decrease of ICA512-TMF upon stimulation (ICA512-TMF [1]): calpeptin-sensitive decrease of ICA512-TMF | Cleavage by μ-calpain (μ-calpain): inhibited | Ca2+-dependent cleavage of ICA512-TMF cytoplasmic domain upon stimulation (ICA512-TMF [2]; INS-1 cells, stimulating buffer (25 mM glucose, 55 mM KCl) 105 min, western blot): prevented in a dose-dependent manner | stimulation induced proteolysis of ICA512-TMF-GFP (ICA512-TMF [2]; cytosolic extracts of ICA512-GFP INS-1 cells, 60 μM calpeptin): calpeptin-sensitive proteolysis of ICA512-TMF-GFP | increased proteolysis of ICA512-TMF in dynamin 1 (K44A)-GFP cells (ICA512-TMF [2]; stimulated INS-1 cells expressing dynamin 1 (K44A)-GFP): inhibited by calpeptin in a dose-dependent fashion
